Measured values: patent US20240208953A1, “"Cyclopenta[c]pyrrol Negative Allosteric Modulators of NR2B"” (Novartis AG, priority 2021, published 2024)

Experiments:
NR2B = NR2B (Rattus norvegicus (Rat), UniProt Q00960); assay: NR2B rat cortical neuron calcium influx assay; type: cell-based; conditions: for IC50: rat cortical neurons, glutamate and glycine stimulated calcium influx; for relative potency in the NR2B rat cortical neuron calcium influx assay: comparison within Examples 5A/5B/5C/5D
Method in brief: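 Primary cortical neurons from E18 Sprague Dawley rat embryos, cultured 2 days, were loaded with Calcium 6 dye in 1.8 mM Ca-HBSS and preincubated with compound 2 h at 37° C. Glutamate plus glycine was added and fluorescence read for 2 min as peak/baseline ratio; duplicate dose-response curves gave IC50 (μM) and maximal inhibition.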

P-glycoprotein (P-gp) = P-glycoprotein (P-gp) (Homo sapiens (Human), UniProt P08183); assay: MDCK-MDR1 permeability / efflux assay; type: in vitro ADME; conditions: for efflux ratio at 120 min, 10 μM: dog, MDCK-MDR1, pH 7.4, efflux ratio, read-out: MDCK-MDR1 ER
Sequence of P-glycoprotein (P-gp) (P08183 whole entry): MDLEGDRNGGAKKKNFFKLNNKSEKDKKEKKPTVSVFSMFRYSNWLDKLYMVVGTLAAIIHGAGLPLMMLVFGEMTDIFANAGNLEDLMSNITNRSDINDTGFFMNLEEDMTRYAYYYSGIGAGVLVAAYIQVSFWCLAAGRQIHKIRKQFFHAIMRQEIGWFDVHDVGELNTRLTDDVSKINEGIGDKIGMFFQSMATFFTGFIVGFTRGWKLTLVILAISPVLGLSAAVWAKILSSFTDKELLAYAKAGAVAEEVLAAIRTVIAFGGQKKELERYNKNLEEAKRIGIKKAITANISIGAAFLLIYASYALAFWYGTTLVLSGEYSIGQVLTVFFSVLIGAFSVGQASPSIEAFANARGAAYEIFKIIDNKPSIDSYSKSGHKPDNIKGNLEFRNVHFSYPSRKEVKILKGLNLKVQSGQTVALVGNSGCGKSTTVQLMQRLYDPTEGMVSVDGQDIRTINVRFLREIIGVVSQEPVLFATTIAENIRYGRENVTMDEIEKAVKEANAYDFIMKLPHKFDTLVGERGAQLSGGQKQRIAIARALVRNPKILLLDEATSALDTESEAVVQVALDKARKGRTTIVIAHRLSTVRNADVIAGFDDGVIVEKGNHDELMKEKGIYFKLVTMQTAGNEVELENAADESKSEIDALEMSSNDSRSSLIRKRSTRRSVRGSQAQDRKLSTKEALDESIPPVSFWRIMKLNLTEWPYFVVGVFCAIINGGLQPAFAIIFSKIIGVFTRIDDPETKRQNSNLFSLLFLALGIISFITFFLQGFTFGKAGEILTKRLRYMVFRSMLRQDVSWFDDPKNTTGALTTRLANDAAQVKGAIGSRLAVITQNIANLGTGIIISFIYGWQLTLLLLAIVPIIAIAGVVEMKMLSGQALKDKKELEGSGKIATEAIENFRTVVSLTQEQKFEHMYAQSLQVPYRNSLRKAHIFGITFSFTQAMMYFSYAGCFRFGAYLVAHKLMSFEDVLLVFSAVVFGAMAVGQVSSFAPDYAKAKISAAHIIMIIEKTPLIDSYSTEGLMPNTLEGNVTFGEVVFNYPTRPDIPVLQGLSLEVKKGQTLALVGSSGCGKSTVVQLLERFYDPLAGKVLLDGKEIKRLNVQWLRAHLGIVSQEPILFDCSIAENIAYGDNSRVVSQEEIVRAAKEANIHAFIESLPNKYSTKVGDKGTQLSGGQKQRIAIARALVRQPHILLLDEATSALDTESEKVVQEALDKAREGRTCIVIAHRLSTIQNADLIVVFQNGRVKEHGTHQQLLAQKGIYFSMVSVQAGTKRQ
Method in brief: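 MDCK-MDR1 monolayers grown 4 days on Transwells; 10 μM compound in HBSS/10 mM HEPES pH 7.4 with 0.02% BSA, run A→B and B→A for 120 min at 37 °C without shaking. Donor and receiver concentrations by LC-MS/MS; Papp and recovery calculated, efflux ratio from B→A vs A→B.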

hERG = hERG (Homo sapiens (Human), UniProt Q12809); assay: hERG Qpatch assay; type: cell-based
Sequence of hERG (Q12809 whole entry): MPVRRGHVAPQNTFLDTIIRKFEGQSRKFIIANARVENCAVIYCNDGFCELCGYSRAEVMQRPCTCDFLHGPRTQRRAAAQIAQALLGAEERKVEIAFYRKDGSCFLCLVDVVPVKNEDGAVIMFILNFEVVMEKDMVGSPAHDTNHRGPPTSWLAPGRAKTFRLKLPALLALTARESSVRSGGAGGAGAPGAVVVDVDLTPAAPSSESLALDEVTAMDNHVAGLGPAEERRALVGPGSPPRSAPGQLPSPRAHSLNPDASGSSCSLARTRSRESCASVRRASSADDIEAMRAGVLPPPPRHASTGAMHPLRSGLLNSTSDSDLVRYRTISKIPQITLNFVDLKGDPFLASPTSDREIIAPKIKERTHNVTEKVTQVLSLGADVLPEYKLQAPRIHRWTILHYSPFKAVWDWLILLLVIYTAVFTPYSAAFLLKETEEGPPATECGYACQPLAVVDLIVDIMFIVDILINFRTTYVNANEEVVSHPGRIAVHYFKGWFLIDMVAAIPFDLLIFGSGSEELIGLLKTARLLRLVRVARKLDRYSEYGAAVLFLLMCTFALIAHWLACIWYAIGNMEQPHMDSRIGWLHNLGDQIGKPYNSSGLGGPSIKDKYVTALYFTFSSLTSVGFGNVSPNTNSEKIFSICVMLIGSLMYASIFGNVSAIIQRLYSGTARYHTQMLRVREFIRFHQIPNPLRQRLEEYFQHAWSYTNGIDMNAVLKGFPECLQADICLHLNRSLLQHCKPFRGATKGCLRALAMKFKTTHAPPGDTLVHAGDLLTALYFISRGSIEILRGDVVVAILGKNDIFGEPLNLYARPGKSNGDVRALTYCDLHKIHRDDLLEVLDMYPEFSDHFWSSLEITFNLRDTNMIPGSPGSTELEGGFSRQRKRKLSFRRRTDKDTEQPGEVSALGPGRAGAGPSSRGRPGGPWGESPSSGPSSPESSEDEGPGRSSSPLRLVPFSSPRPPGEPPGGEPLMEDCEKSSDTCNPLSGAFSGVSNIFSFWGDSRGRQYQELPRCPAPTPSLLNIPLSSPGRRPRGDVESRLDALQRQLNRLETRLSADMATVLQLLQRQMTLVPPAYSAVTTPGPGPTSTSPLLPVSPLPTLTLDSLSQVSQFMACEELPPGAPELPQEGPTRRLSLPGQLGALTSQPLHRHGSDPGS
Description: Example 3. hERG Qpatch Assay Protocol
This assay was performed by the method described in Skepper et al., J. Med. Chem. 2020, 63, 7773-7816:
hERG expressing cell lines were produced in-house at Novartis using CHO-K1 T-Rex inducible plasmid system (Invitrogen) as described previously (Cao et al., Assay Drug Dev. Technol. 2010, 8, 766-780). Cell lines were maintained in Ham's F12 nutrient mixture containing 10% FBS, blasticidin ([…]; InvivoGen), hygromycin B ([…]; InvivoGen), Zeocin ([…], Invitrogen), and neomycin ([…], Invitrogen) using SelecT automated cell culture system (TAP Biosystems, Cambridge, U.K.). hERG and hCav1.2 channels expression was induced with tetracycline (0.25-1 μg/mL, Invitrogen) at least 24 h prior to the experiment.
hERG currents were recorded using the Qpatch automated patch clamp systems (Sophion Bioscience Inc., North Brunswick, NJ) in the whole (single) cell configuration. hERG expressing CHO-K1 cells were harvested with Detachin (Genlantis) and stored in the modified serum-free SFM-2 media (Life Technologies) at room temperature. The extracellular solution contained (in mM) NaCl (145), KCl (4), MgCl2 (1), CaCl2 (2), and HEPES (10), pH 7.4, with NaOH. The intracellular solution contained KCl (135), MgCl2 (1.75), CaCl2 (5.4), EGTA (10), K2-ATP (4), and HEPES (10), pH 7.2, with KOH. After whole cell configuration was achieved, the cell was held at −90 mV, and a 0.1 s pulse to −50 mV was delivered to measure the leaking current, which was subtracted from the tail current online. Then the cell was depolarized to +20 mV for 4 s (prepulse), followed by a 4 s test pulse to −50 mV to reveal the hERG tail current. To monitor changes in the current amplitude, this voltage protocol was repeatedly applied every 20 s. Test compounds were first diluted in DMSO for six dose-response experiments and then dissolved in the extracellular solution using Freedom EVO liquid handling robotic system (Tecan, Männedorf, Switzerland). The final DMSO concentration in samples was 0.3% v/v. Amitriptyline (Sigma) was tested as a positive control. Data were analyzed using in-house developed MatLab-based program (MathWorks, Natick, MA

[1] = Table 2, hERG expressing CHO-K1 cells

Sequence of NR2B (Q00960 27-1482, other chains not shown): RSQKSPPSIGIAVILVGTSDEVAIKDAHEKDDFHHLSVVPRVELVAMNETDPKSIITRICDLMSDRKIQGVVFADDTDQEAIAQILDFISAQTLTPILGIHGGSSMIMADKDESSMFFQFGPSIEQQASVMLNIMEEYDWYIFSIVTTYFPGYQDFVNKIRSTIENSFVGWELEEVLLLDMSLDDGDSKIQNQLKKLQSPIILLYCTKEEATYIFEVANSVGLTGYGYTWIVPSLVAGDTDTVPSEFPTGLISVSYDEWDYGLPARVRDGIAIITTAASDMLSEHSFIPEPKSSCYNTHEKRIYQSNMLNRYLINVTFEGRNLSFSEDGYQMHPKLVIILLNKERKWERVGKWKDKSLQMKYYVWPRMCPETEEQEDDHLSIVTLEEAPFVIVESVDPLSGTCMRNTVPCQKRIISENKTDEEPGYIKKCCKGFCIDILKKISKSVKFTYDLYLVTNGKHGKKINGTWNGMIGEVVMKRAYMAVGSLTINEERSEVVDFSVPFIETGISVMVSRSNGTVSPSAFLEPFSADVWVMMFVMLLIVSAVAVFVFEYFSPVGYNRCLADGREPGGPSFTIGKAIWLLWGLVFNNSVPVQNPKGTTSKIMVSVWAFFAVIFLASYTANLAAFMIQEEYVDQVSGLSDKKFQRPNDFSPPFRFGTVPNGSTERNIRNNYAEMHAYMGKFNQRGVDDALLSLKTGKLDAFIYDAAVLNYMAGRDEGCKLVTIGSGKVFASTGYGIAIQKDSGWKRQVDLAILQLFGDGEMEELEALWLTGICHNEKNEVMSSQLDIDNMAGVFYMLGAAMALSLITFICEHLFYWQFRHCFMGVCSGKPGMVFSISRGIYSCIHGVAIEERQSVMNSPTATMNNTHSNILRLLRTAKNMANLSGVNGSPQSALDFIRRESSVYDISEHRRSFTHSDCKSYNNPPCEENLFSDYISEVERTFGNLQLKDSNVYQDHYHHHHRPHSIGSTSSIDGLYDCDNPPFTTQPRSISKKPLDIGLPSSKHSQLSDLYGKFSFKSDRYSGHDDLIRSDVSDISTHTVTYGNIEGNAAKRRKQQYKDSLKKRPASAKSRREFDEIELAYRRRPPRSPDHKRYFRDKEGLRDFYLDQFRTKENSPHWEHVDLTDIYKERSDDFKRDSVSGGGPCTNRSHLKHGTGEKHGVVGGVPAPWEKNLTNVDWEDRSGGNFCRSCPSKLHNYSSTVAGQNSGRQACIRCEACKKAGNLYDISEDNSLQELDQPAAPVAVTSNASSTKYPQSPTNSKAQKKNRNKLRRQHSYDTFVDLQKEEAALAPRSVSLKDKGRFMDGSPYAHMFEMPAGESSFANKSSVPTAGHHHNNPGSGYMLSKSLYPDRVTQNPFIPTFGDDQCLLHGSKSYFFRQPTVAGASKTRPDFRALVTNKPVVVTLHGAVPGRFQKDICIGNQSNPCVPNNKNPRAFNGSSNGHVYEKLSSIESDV

| SMILES | IC50 (NR2B) | efflux ratio at 120 min, 10 μM (P-glycoprotein (P-gp)) | relative potency in the NR2B rat cortical neuron calcium influx assay (NR2B) | MDCK-MDR1 ER (P-glycoprotein (P-gp); efflux ratio, 10 μM, 120 min) | IC50 (hERG; [1]) | IC50 (hERG; Table 3, matched pairs) |
| --- | --- | --- | --- | --- | --- | --- |
| O=C1CCc2cc([C@H](O)CN3C[C@H]4C[C@H](Oc5ccccc5F)[C@H](O)[C@@]4(O)C3)cc(F)c2N1 (single isomer, unassigned) [Example 29B] | 11 nM | 4.24 | – | – | 12500 nM | – |
| O=c1[nH]c2c(F)cc([C@@H](O)CN3C[C@H]4C[C@H](Oc5ccccc5)C[C@@]4(O)C3)cc2s1 (single isomer, unassigned) [Example 42A] | 0.19 nM | 0.93 | – | – | 2200 nM | – |
| O=C1Nc2cc(F)c([C@@H](O)CN3C[C@H]4C[C@H](Oc5ccccc5)C[C@@]4(O)C3)cc2CO1 (single isomer, unassigned) [Example 36A] | 0.49 nM | 4.04 | – | – | 5500 nM | – |
| O=C1Nc2c(F)cc([C@H](O)CN3C[C@H]4C[C@H](Oc5ccccc5)C[C@@]4(O)C3)cc2CS1 (single isomer, unassigned) [Example 16B] | 0.08 nM | 0.75 | – | – | 200 nM | – |
| O=c1[nH]c2ccc([C@@H](O)CN3C[C@H]4C[C@H](Oc5ccccc5)C[C@@]4(O)C3)cc2s1 (single isomer, unassigned) [Example 17A] | 0.013 nM | 1.11 | – | – | 200 nM | – |
| O=C1Nc2c(F)cc([C@@H](O)CN3C[C@H]4C[C@H](Oc5ccccc5)C[C@@]4(O)C3)cc2CS1 (single isomer, unassigned) [Example 16A] | 0.051 nM | 0.66 | – | – | 400 nM | – |
| O=C1CCc2cc([C@@H](O)CN3C[C@@H]4C[C@@H](Oc5cccc(F)c5F)C[C@]4(O)C3)ccc2N1 (single isomer, unassigned) [Example 24C] | 0.021 nM | 1.46 | – | – | 1200 nM | – |
| O=c1[nH]c2ccc([C@H](O)CN3C[C@H]4C[C@H](Oc5ccccc5F)C[C@@]4(O)C3)cc2s1 (single isomer, unassigned) [Example 18B] | 0.012 nM | – | – | – | 1200 nM | – |
| O=C1Nc2c(F)cc([C@@H](O)CN3C[C@H]4C[C@H](Oc5ccccc5)C[C@@]4(O)C3)cc2CO1 (single isomer, unassigned) [Example 33A] | 4.9 nM | 1.87 | – | – | 8200 nM | – |
| O[C@H](CN1C[C@H]2C[C@H](Oc3ccccc3F)[C@H](O)[C@@]2(O)C1)c1cnc2[nH]ccc2c1 (single isomer, unassigned) [Example 44B] | 1190 nM | 7.34 | – | – | 15700 nM | – |
| O=c1ccc2cc([C@@H](O)CN3C[C@H]4C[C@H](Oc5ccccc5)C[C@@]4(O)C3)ccc2[nH]1 (single isomer, unassigned) [Example 8A] | 0.8 nM | 3.68 | – | – | 2800 nM | – |
| O=C1CCc2cc([C@@H](O)CN3C[C@@H]4C[C@@H](Oc5c(F)cccc5F)C[C@]4(O)C3)ccc2N1 (single isomer, unassigned) [Example 27C] | 1.7 nM | 1.52 | – | – | – | – |
| O=C1CCc2cc(C(O)CN3C[C@H]4C[C@H](Oc5ccccc5F)C[C@H]4C3)ccc2N1 (mixture of isomers) [Mixture of two isomers at benzylic position, reference compound] | – | – | – | – | – | 500 nM |
| O=C1Nc2ccc([C@H](O)CN3C[C@H]4C[C@H](Oc5ccccc5)C[C@@]4(O)C3)c(F)c2CO1 (single isomer, unassigned) [Example 34B] | 1.1 nM | 3.47 | – | – | – | – |
| O=C1Nc2c(F)cc([C@@H](O)CN3C[C@H]4C[C@H](Oc5ccccc5F)C[C@@]4(O)C3)cc2CO1 (single isomer, unassigned) [Example 35A] | 1.2 nM | 1 | – | – | – | – |

The next lines start with results.

| IC50 (NR2B) | efflux ratio at 120 min, 10 μM (P-glycoprotein (P-gp)) | relative potency in the NR2B rat cortical neuron calcium influx assay (NR2B) | MDCK-MDR1 ER (P-glycoprotein (P-gp); efflux ratio, 10 μM, 120 min) | SMILES | IC50 (hERG; [1]) | IC50 (hERG; Table 3, matched pairs) |
| --- | --- | --- | --- | --- | --- | --- |
| 0.18 nM | 2.06 | – | – | O=C1Nc2ccc([C@H](O)CN3C[C@H]4C[C@H](Oc5ccccc5)C[C@@]4(O)C3)cc2CS1 (single isomer, unassigned) [Example 14B] | 1300 nM | – |
| 0.41 nM | 1.11 | – | – | O=C1CCc2cc([C@@H](O)CN3C[C@H]4C[C@H](Oc5ccccc5)C[C@@]4(O)C3)c(F)cc2N1 (single isomer, unassigned) [Example 10A] | 2100 nM | – |
| 4.8 nM | – | – | – | O=C1CCc2cc([C@H](O)CN3C[C@H]4C[C@H](Oc5ccccc5)C[C@@]4(O)C3)cc(F)c2N1 (single isomer, unassigned) [Example 31B] | 3900 nM | – |
| 0.6 nM | 3.02 | – | – | O=C1CCc2cc([C@@H](O)CN3C[C@H]4C[C@H](Oc5ccccc5)C[C@@]4(O)C3)ccc2N1 [Example 1A, 6-((R)-1-hydroxy-2-((3aS,5S,6aR)-3a-hydroxy-5-phenoxyhexahydrocyclopenta[c]pyrrol-2(1H)-yl)ethyl)-3,4-dihydroquinolin-2(1H)-one] | 10700 nM | – |
| 0.61 nM | – | more potent than Examples 5A and 5B | 1.93 | O=C1CCc2cc(C(O)CN3C[C@H]4C[C@H](Oc5ccccc5F)C[C@@]4(O)C3)ccc2N1 (single isomer, unassigned) [Example 5D] | 5900 nM | 5900 nM |
| 0.83 nM | 3.32 | – | – | O=C1Nc2ccc([C@@H](O)CN3C[C@H]4C[C@H](Oc5ccccc5)C[C@@]4(O)C3)cc2CO1 (single isomer, unassigned) [Example 28A] | 2400 nM | – |
| 1.6 nM | 2.3 | – | – | O=C1CCc2cc([C@H](O)CN3C[C@H]4C[C@H](Oc5ccccc5)C[C@@]4(O)C3)ccc2N1 [Example 1B, 6-((S)-1-hydroxy-2-((3aS,5S,6aR)-3a-hydroxy-5-phenoxyhexahydrocyclopenta[c]pyrrol-2(1H)-yl)ethyl)-3,4-dihydroquinolin-2(1H)-one] | 7600 nM | – |
| 10 nM | 1.63 | – | – | O=C1CCc2cc([C@@H](O)CN3C[C@H]4C[C@H](Oc5ccccc5)C[C@@]4(O)C3)cc(F)c2N1 (single isomer, unassigned) [Example 31A] | 7300 nM | – |
| 0.59 nM | 2.07 | more potent than Examples 5A and 5B | – | O=C1CCc2cc(C(O)CN3CC4CC(Oc5ccccc5F)CC4(O)C3)ccc2N1 (stereo in doubt) [Example 5C, 6-((R)-2-((3aR,5R,6aS)-5-(2-fluorophenoxy)-3a-hydroxyhexahydrocyclopenta[c]pyrrol-2(1H)-yl)-1-hydroxyethyl)-3,4-dihydroquinolin-2(1H)-one] | 6000 nM | 6000 nM |
| 1.9 nM | 2.07 | – | – | O=C1CCCc2cc([C@H](O)CN3C[C@H]4C[C@H](Oc5ccccc5)C[C@@]4(O)C3)ccc2N1 (single isomer, unassigned) [Example 7B] | 15200 nM | – |
| 63 nM | 3.54 | – | – | O=C1Cc2cc([C@H](O)CN3C[C@H]4C[C@H](Oc5ccccc5)C[C@@]4(O)C3)ccc2N1 [Example 2B, 5-((S)-1-hydroxy-2-((3aS,5S,6aR)-3a-hydroxy-5-phenoxyhexahydrocyclopenta[c]pyrrol-2(1H)-yl)ethyl)indolin-2-one] | – | – |
| 4.1 nM | 1.4 | – | – | O=C1CCc2c(ccc([C@H](O)CN3C[C@H]4C[C@H](Oc5ccccc5)C[C@@]4(O)C3)c2F)N1 (single isomer, unassigned) [Example 9B] | – | – |
| 100 nM | 3.3 | – | – | O=C1Cc2cc([C@@H](O)CN3C[C@H]4C[C@H](Oc5ccccc5)C[C@@]4(O)C3)ccc2N1 (single isomer, unassigned) [Example 2A] | – | – |
